Measured values as given in BindingDB's records for doi:10.1016/j.bioorg.2014.07.011 (Shenyang Pharmaceutical University, 2014).

How the values were obtained:
Assay in all cases: HTRF kinase assay
Conditions in all cases: pH 7; 25 °C
[1] = biological target: Hepatocyte growth factor receptor (Homo sapiens, UniProt P08581)
Procedure: The c-Met kinase activity was evaluated by homogeneous time-resolved fluorescence (HTRF) assays. In a 384-well plate, 20 µg/mL (Glue, Tyr) 4:1 was added, followed by the addition of 50 µL of 10 mM ATP solution diluted in kinase reaction buffer (50 mM HEPES, pH 7.0, […], and 0.1% NaN3) into each well. Various concentrations of compounds diluted in 10 µL of 1% DMSO (v/v) […]. The reaction was initiated by the addition of purified c-Met kinase diluated in 39 µL of kinase reaction buffer solution. The reaction was incubated for 30 min at 25 °C and stopped by the addition of 5 µL of Streptavidin-XL665 and 5 µL Tk Antibody Cryptate working solution to all of the wells.

[2] = biological target: T1, Epidermal growth factor receptor [1-973] (Homo sapiens, UniProt P00533)
T1 construct: 1-973

[3] = biological target: Macrophage-stimulating protein receptor (Homo sapiens, UniProt Q04912)
[4] = biological target: T2, Mast/stem cell growth factor receptor Kit [1-973] (Homo sapiens, UniProt P10721)
T2 construct: 1-973

[5] = biological target: T3, Platelet-derived growth factor receptor alpha [1-973] (Homo sapiens, UniProt P16234)
T3 construct: 1-973

[6] = biological target: T4, Receptor-type tyrosine-protein kinase FLT3 (Homo sapiens, UniProt P36888)
T4 sequence (P36888 whole entry): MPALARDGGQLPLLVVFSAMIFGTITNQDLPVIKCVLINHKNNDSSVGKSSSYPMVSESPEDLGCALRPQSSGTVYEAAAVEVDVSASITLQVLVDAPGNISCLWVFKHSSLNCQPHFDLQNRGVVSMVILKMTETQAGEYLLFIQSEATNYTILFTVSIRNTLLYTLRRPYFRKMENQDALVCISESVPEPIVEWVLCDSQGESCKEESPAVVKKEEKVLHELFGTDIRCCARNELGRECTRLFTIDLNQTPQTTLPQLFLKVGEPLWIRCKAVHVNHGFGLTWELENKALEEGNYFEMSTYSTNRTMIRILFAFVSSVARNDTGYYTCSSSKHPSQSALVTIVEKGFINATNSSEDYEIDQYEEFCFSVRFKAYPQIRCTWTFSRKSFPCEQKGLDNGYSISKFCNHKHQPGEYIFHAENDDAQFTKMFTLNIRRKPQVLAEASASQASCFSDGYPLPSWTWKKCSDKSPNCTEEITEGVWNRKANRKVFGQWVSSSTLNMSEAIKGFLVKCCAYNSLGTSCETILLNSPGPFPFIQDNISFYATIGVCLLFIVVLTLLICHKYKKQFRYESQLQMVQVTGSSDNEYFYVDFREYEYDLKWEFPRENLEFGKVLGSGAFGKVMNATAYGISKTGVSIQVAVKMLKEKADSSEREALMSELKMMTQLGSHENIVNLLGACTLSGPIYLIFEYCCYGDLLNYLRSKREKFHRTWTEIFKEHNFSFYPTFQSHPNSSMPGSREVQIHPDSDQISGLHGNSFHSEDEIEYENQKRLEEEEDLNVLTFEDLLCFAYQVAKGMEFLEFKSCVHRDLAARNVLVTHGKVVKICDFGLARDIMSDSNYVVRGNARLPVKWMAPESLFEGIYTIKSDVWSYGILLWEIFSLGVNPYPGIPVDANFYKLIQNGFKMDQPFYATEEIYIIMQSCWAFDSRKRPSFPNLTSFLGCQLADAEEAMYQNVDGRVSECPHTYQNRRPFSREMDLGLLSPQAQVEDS

[7] = biological target: Vascular endothelial growth factor receptor 1 (Homo sapiens, UniProt P17948)
[8] = biological target: Vascular endothelial growth factor receptor 2 (Homo sapiens, UniProt P35968)

Chain of Hepatocyte growth factor receptor (P08581 whole entry): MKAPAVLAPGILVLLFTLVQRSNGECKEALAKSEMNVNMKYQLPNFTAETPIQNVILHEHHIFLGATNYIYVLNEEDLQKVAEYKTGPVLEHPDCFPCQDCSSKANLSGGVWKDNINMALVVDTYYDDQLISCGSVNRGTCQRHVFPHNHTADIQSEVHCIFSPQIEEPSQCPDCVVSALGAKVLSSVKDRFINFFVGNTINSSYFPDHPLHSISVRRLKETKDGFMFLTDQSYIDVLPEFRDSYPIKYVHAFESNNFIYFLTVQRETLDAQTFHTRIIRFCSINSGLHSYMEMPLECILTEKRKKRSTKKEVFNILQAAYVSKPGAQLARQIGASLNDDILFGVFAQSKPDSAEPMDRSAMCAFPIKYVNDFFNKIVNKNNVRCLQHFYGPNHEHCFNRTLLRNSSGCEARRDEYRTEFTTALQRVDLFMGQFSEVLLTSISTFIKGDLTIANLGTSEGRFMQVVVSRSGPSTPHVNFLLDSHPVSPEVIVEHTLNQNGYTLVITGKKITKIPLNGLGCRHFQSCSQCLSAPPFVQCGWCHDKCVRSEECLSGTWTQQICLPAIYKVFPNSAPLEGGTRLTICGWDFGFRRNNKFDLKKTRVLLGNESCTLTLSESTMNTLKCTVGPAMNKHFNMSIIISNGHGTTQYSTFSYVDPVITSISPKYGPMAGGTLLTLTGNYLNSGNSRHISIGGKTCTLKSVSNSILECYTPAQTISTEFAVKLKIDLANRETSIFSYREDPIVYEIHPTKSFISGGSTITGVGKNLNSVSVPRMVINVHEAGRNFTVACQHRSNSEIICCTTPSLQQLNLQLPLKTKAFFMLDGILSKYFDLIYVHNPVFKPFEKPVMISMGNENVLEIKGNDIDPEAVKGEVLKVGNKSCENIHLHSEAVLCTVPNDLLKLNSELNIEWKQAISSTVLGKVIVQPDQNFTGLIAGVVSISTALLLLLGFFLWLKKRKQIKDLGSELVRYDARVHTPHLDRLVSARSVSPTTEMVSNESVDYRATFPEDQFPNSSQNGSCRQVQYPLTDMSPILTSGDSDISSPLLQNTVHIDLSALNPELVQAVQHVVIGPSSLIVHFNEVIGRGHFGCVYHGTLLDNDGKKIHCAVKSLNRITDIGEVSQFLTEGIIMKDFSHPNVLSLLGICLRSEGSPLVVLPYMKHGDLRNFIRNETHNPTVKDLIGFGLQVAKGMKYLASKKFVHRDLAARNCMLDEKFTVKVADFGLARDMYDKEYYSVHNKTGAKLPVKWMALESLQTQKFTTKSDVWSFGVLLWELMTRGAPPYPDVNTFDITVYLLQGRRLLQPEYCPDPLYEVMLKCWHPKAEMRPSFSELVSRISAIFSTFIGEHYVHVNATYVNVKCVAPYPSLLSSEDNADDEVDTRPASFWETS
Chain of Macrophage-stimulating protein receptor (Q04912 25-304 limits assumed): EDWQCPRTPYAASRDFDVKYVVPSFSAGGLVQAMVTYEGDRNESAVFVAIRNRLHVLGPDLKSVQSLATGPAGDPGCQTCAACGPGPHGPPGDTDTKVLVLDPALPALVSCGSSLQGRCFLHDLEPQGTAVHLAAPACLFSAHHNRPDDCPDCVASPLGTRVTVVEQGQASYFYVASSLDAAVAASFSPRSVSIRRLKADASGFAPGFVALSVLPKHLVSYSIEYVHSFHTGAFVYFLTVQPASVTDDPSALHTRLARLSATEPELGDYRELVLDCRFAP
Chain of Macrophage-stimulating protein receptor (Q04912 310-1400 limits assumed): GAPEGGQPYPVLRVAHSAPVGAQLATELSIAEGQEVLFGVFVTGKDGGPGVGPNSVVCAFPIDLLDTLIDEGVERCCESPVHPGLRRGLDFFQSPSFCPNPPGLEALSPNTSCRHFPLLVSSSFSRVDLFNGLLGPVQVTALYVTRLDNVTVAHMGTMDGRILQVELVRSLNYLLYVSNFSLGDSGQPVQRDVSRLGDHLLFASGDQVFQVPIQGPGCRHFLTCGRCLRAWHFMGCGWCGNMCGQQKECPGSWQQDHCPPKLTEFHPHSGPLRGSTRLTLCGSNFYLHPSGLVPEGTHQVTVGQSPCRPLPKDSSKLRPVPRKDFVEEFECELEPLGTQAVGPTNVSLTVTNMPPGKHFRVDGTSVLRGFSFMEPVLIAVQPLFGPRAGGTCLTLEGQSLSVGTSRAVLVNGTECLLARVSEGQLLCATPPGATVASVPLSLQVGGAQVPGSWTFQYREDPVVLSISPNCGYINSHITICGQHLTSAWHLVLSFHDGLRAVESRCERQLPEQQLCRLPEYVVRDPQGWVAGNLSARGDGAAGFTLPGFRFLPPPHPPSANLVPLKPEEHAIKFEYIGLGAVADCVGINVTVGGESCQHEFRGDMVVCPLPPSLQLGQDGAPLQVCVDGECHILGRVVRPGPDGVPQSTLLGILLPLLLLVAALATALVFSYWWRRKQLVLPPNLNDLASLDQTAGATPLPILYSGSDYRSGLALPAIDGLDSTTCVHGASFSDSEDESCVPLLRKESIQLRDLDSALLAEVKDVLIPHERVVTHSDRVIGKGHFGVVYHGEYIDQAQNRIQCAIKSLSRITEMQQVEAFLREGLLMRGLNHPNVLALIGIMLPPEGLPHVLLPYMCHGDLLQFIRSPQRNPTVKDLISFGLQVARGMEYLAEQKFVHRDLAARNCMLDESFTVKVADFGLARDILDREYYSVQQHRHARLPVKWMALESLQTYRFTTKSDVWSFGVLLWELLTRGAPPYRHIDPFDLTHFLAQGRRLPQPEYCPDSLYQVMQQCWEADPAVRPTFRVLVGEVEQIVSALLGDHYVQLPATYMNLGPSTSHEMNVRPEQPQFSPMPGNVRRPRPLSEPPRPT
T2 sequence (P10721 1-973): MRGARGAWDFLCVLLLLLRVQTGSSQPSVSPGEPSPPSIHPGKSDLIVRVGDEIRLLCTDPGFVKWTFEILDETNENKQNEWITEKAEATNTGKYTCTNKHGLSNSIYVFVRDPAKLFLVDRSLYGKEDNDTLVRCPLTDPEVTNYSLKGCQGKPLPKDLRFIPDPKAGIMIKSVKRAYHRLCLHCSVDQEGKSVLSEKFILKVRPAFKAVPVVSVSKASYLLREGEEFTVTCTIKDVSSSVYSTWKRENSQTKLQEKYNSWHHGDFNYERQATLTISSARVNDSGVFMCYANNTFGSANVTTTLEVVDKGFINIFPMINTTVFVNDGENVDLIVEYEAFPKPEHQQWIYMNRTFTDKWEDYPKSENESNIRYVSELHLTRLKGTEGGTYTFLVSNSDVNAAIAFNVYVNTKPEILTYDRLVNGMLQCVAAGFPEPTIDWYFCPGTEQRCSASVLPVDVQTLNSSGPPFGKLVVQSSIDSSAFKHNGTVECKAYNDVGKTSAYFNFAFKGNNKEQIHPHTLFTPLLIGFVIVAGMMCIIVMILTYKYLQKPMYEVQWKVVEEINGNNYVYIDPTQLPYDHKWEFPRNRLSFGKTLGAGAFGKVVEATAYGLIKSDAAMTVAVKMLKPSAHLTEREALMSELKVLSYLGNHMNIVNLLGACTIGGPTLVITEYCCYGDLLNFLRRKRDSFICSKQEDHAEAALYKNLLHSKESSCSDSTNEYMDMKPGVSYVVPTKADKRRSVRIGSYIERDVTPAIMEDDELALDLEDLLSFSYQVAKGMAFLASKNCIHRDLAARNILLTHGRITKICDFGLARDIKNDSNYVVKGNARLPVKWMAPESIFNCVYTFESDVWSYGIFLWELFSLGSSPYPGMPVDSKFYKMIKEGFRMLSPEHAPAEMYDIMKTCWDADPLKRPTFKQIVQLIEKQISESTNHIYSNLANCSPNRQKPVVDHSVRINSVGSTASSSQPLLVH
Chain of Vascular endothelial growth factor receptor 1 (P17948 whole entry): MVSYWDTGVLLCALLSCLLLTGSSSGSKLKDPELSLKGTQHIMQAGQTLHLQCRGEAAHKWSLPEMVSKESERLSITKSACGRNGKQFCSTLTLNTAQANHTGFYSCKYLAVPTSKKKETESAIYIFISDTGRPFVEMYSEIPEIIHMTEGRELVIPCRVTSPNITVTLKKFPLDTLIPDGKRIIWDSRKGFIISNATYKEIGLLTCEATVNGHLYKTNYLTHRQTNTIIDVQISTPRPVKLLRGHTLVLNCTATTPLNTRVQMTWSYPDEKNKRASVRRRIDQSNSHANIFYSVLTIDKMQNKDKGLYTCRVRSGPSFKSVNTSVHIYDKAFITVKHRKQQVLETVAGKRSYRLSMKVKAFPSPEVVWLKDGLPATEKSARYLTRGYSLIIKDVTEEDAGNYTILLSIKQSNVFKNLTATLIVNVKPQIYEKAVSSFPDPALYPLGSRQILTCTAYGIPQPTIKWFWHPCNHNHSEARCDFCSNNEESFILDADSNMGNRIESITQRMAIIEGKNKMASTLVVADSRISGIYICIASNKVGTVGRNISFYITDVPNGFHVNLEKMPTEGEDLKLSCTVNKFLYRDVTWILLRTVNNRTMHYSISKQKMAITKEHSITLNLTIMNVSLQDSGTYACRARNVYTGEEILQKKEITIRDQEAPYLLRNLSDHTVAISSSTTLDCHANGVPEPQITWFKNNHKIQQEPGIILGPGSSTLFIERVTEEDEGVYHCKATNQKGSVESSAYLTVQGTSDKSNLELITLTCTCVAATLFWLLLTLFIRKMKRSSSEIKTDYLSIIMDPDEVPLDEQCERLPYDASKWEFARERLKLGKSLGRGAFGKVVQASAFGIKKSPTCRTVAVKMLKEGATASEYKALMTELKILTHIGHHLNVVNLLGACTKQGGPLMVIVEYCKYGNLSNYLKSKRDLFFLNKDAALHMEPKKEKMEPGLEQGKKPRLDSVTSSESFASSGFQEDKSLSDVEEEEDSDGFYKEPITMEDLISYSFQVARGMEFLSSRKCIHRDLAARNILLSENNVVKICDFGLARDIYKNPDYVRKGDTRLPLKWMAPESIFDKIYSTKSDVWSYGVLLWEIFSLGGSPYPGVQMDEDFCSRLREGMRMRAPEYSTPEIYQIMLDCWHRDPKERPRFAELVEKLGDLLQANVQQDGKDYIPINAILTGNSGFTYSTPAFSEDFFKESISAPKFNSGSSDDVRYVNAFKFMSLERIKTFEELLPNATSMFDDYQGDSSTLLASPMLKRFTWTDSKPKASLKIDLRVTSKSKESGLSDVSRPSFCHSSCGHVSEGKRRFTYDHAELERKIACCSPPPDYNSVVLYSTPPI

`COc1cc2c(Oc3ccc(N=Cc4c(O)n(-c5ccccc5C(F)(F)F)c(=O)n4C)cc3F)ccnc2cc1OCCCN1CCCC1` [(E)-5-(((3-fluoro-4-((6-methoxy-7-(3-(pyrrolidin-1-yl)propoxy)quinolin-4-yl)oxy)phenyl)amino)methylene)-1-methyl-3-(2-(trifluoromethyl)phenyl)imidazolidine-2,4-dione (38)] was tested, and the IC50 [1] was 2.75 nM.
For `COc1cc2c(Oc3ccc(N=Cc4c(O)n(-c5ccccc5F)c(=O)n4C)cc3F)ccnc2cc1OCCCN1CCOCC1` [(E)-5-(((3-fluoro-4-((6-methoxy-7-(3-morpholinopropoxy)quinolin-4-yl)oxy)phenyl)amino)methylene)-3-(2-fluorophenyl)-1-methylimidazolidine-2,4-dione (40)], the IC50 [1] was 8.78 nM.
Compound `COc1cc2c(Oc3ccc(N=Cc4c(C)[nH]n(-c5ccccc5C(F)(F)F)c4=O)cc3F)ccnc2cc1OCCCN1CCCCC1` [(Z)-4-(((3-fluoro-4-((6-methoxy-7-(3-(piperidin-1-yl)propoxy)quinolin-4-yl)oxy)phenyl)amino)methylene)-3-methyl-1-(2-(trifluoromethyl)phenyl)-1H-pyrazol-5(4H)-one (21)] has an IC50 [1] of 6.63 nM.
Work on `COc1cc2c(Oc3ccc(N=Cc4c(C)[nH]n(-c5ccccc5C(F)(F)F)c4=O)cc3F)ccnc2cc1OCCCN1CCCC1` [(Z)-4-(((3-fluoro-4-((6-methoxy-7-(3-(pyrrolidin-1-yl)propoxy)quinolin-4-yl)oxy)phenyl)amino)methylene)-3-methyl-1-(2-(trifluoromethyl)phenyl)-1H-pyrazol-5(4H)-one (13)] yielded an IC50 [1] of 5.04 nM.
`COc1cc2c(Oc3ccc(N=Cc4c(C)[nH]n(-c5ccccc5C(F)(F)F)c4=O)cc3F)ccnc2cc1OCCCN1CCOCC1` [(Z)-4-(((3-fluoro-4-((6-methoxy-7-(3-morpholinopropoxy)quinolin-4-yl)oxy)phenyl)amino)methylene)-3-methyl-1-(2-(trifluoromethyl)phenyl)-1H-pyrazol-5(4H)-one (17)] was tested, and the IC50 [1] was 2.2 nM, the IC50 [2] was greater than 10000 nM and the IC50 [3] was 4.24 nM. The IC50 [4] was 2.3 nM, the IC50 [5] was 32.2 nM and the IC50 [6] was 8.38 nM. For the same compound, the IC50 [7] was 8.56 nM and the IC50 [8] was 326 nM.
